Reference: PubChem BioAssay AID1963827 (Molecular Pharmacology Branch, DTP, NCI, 2024)

Tested on: 994946-033-R-J1-PDC complex spheroid viability
Test: Anticancer human tumor 994946-033-R-J1-PDC patient-derived melanoma cell line growth inhibition [POLQ]
Details: for IC50: curve of first compound; for viability, T/C: stronger effect = lower value
Procedure, shortened: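 Growth inhibition in 3D: complex spheroids (tumor PDC, HUVEC, MSC) treated with POLQ inhibitor combinations; where Cmax unknown, highest tested concentration 10 microM, except SN-38 at 1 microM.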

[1] = second compound 0.0316 µM, first compound 0.0316 µM
[2] = second compound 0.0316 µM, first compound 0.1 µM
[3] = second compound 0.0316 µM, first compound 0.316 µM
[4] = second compound 0.0316 µM, first compound 1 µM
[5] = second compound 0.0316 µM, first compound 3.16 µM
[6] = second compound 0.0316 µM, first compound 10 µM
[7] = second compound 0.1 µM, first compound 0.0316 µM
[8] = second compound 0.1 µM, first compound 0.1 µM
[9] = second compound 0.1 µM, first compound 0.316 µM
[10] = second compound 0.1 µM, first compound 1 µM
[11] = second compound 0.1 µM, first compound 3.16 µM
[12] = second compound 0.1 µM, first compound 10 µM
[13] = second compound 0.316 µM, first compound 0.0316 µM
[14] = second compound 0.316 µM, first compound 0.1 µM
[15] = second compound 0.316 µM, first compound 0.316 µM
[16] = second compound 0.316 µM, first compound 1 µM
[17] = second compound 0.316 µM, first compound 3.16 µM
[18] = second compound 0.316 µM, first compound 10 µM
[19] = second compound 1 µM, first compound 0.0316 µM
[20] = second compound 1 µM, first compound 0.1 µM
[21] = second compound 1 µM, first compound 0.316 µM
[22] = second compound 1 µM, first compound 1 µM
[23] = second compound 1 µM, first compound 3.16 µM
[24] = second compound 1 µM, first compound 10 µM
[25] = second compound 3.16 µM, first compound 0.0316 µM
[26] = second compound 3.16 µM, first compound 0.1 µM
[27] = second compound 3.16 µM, first compound 0.316 µM
[28] = second compound 3.16 µM, first compound 1 µM
[29] = second compound 3.16 µM, first compound 3.16 µM
[30] = second compound 3.16 µM, first compound 10 µM
[31] = second compound 10 µM, first compound 0.0316 µM
[32] = second compound 10 µM, first compound 0.1 µM
[33] = second compound 10 µM, first compound 0.316 µM
[34] = second compound 10 µM, first compound 1 µM
[35] = second compound 10 µM, first compound 3.16 µM
[36] = second compound 10 µM, first compound 10 µM
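Note: spheroids exposed to drugs for 7 days.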
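Throughout, for viability, T/C: 100% = DMSO vehicle treated spheroids.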

C#Cc1c(F)ccc2cc(O)cc(-c3ncc4c(N5CC6CCC(C5)N6)nc(OCC56CCCN5CC(F)C6)nc4c3F)c12 (stereo not drawn) + COC1C(OC(N)=O)C(O)C(Oc2ccc3c(O)c(NC(=O)c4ccc(O)c(CC=C(C)C)c4)c(=O)oc3c2C)OC1(C)C
IC50 (second compound 0.0316 µM): 5.06 µM
IC50 (second compound 0.1 µM): 5.48 µM
IC50 (second compound 0.316 µM): 4.01 µM
IC50 (second compound 1 µM): 5.89 µM
IC50 (second compound 3.16 µM): 4.14 µM
IC50 (second compound 10 µM): 5.33 µM
viability, T/C [1]: 116%
viability, T/C [2]: 121%
viability, T/C [3]: 87.2%
viability, T/C [4]: 139%
viability, T/C [5]: 76.4%
viability, T/C [6]: 11.8%
viability, T/C [7]: 107%
viability, T/C [8]: 98.7%
viability, T/C [9]: 78.8%
viability, T/C [10]: 110%
viability, T/C [11]: 82.7%
viability, T/C [12]: 14.3%
viability, T/C [13]: 106%
viability, T/C [14]: 99.7%
viability, T/C [15]: 96.2%
viability, T/C [16]: 84.7%
viability, T/C [17]: 61%
viability, T/C [18]: 10.2%
viability, T/C [19]: 77.9%
viability, T/C [20]: 114%
viability, T/C [21]: 81.7%
viability, T/C [22]: 71.5%
viability, T/C [23]: 82.5%
viability, T/C [24]: 26.6%
viability, T/C [25]: 98.2%
viability, T/C [26]: 92.7%
viability, T/C [27]: 105%
viability, T/C [28]: 94.7%
viability, T/C [29]: 62.3%
viability, T/C [30]: 9.63%
viability, T/C [31]: 94.8%
viability, T/C [32]: 93.2%
viability, T/C [33]: 65.9%
viability, T/C [34]: 92%
viability, T/C [35]: 86.3%
viability, T/C [36]: 6.26%

COc1cccc2c1C(=O)c1c(O)c3c(c(O)c1C2=O)CC(O)(C(=O)CO)CC3OC1CC(N)C(O)C(C)O1 (stereo not drawn) + Cc1cccc(N(C)C(=O)C2C(O)CCN2c2nc(C)cc(C(F)(F)F)c2C#N)c1
IC50 (second compound 0.0316 µM): < 0.0316 µM
IC50 (second compound 0.1 µM): < 0.0316 µM
IC50 (second compound 0.316 µM): < 0.0316 µM
IC50 (second compound 1 µM): < 0.0316 µM
IC50 (second compound 3.16 µM): < 0.0316 µM
IC50 (second compound 10 µM): < 0.0316 µM
viability, T/C [1]: 31.8%
viability, T/C [2]: 10.5%
viability, T/C [3]: 2.24%
viability, T/C [4]: 1.98%
viability, T/C [5]: 2.99%
viability, T/C [6]: 0.53%
viability, T/C [7]: 26.8%
viability, T/C [8]: 6.95%
viability, T/C [9]: 3.98%
viability, T/C [10]: 0.54%
viability, T/C [11]: 1.3%
viability, T/C [12]: 1.07%
viability, T/C [13]: 22.5%
viability, T/C [14]: 7.12%
viability, T/C [15]: 3.03%
viability, T/C [16]: 2.42%
viability, T/C [17]: 1.56%
viability, T/C [18]: 0.77%
viability, T/C [19]: 47.9%
viability, T/C [20]: 7.31%
viability, T/C [21]: 1.73%
viability, T/C [22]: 2.31%
viability, T/C [23]: 1.01%
viability, T/C [24]: 0.51%
viability, T/C [25]: 22.8%
viability, T/C [26]: 7.88%
viability, T/C [27]: 1.7%
viability, T/C [28]: 1.41%
viability, T/C [29]: 1.39%
viability, T/C [30]: 0.69%
viability, T/C [31]: 33.1%
viability, T/C [32]: 8.28%
viability, T/C [33]: 2.08%
viability, T/C [34]: 1.32%
viability, T/C [35]: 0.67%
viability, T/C [36]: 0.65%

Nc1ccn(C2OC(CO)C(O)C2(F)F)c(=O)n1 (stereo not drawn) + COC1C(OC(N)=O)C(O)C(Oc2ccc3c(O)c(NC(=O)c4ccc(O)c(CC=C(C)C)c4)c(=O)oc3c2C)OC1(C)C
IC50 (second compound 0.0316 µM): < 0.0316 µM
IC50 (second compound 0.1 µM): < 0.0316 µM
IC50 (second compound 0.316 µM): < 0.0316 µM
IC50 (second compound 1 µM): < 0.0316 µM
IC50 (second compound 3.16 µM): 0.0354 µM
IC50 (second compound 10 µM): < 0.0316 µM
viability, T/C [1]: 24.4%
viability, T/C [2]: 9.96%
viability, T/C [3]: 7.61%
viability, T/C [4]: 7.06%
viability, T/C [5]: 5.98%
viability, T/C [6]: 1.31%
viability, T/C [7]: 30.7%
viability, T/C [8]: 9.93%
viability, T/C [9]: 5.26%
viability, T/C [10]: 7.92%
viability, T/C [11]: 7.09%
viability, T/C [12]: 2.72%
viability, T/C [13]: 26.8%
viability, T/C [14]: 7.23%
viability, T/C [15]: 6.54%
viability, T/C [16]: 6.27%
viability, T/C [17]: 6.01%
viability, T/C [18]: 3.92%
viability, T/C [19]: 28.8%
viability, T/C [20]: 4.66%
viability, T/C [21]: 7.79%
viability, T/C [22]: 8.09%
viability, T/C [23]: 5.28%
viability, T/C [24]: 2.12%
viability, T/C [25]: 54.6%
viability, T/C [26]: 7.74%
viability, T/C [27]: 6.32%
viability, T/C [28]: 6%
viability, T/C [29]: 4.45%
viability, T/C [30]: 1.73%
viability, T/C [31]: 19.9%
viability, T/C [32]: 7.37%
viability, T/C [33]: 6.97%
viability, T/C [34]: 6.33%
viability, T/C [35]: 4.89%
viability, T/C [36]: 2.82%

CCc1cc2c(N3CCc4c(cc(Cn5ccnc5)cc4-c4cn(C)nc4C(F)(F)F)C3=O)ccnc2c(OC)n1 + Cc1cccc(N(C)C(=O)C2C(O)CCN2c2nc(C)cc(C(F)(F)F)c2C#N)c1
IC50 (second compound 0.0316 µM): > 10 µM
IC50 (second compound 0.1 µM): > 10 µM
IC50 (second compound 0.316 µM): > 10 µM
IC50 (second compound 1 µM): > 10 µM
IC50 (second compound 3.16 µM): > 10 µM
IC50 (second compound 10 µM): > 10 µM
viability, T/C [1]: 107%
viability, T/C [2]: 86.7%
viability, T/C [3]: 68.3%
viability, T/C [4]: 78.4%
viability, T/C [5]: 69.1%
viability, T/C [6]: 67.4%
viability, T/C [7]: 95.3%
viability, T/C [8]: 85.2%
viability, T/C [9]: 78.6%
viability, T/C [10]: 78.1%
viability, T/C [11]: 66.3%
viability, T/C [12]: 66.9%
viability, T/C [13]: 102%
viability, T/C [14]: 94.2%
viability, T/C [15]: 86.1%
viability, T/C [16]: 93.9%
viability, T/C [17]: 63.3%
viability, T/C [18]: 61.6%
viability, T/C [19]: 77.7%
viability, T/C [20]: 78.8%
viability, T/C [21]: 93.5%
viability, T/C [22]: 80.1%
viability, T/C [23]: 84.1%
viability, T/C [24]: 55.2%
viability, T/C [25]: 92.4%
viability, T/C [26]: 76.8%
viability, T/C [27]: 65%
viability, T/C [28]: 63%
viability, T/C [29]: 85.9%
viability, T/C [30]: 53.1%
viability, T/C [31]: 81.5%
viability, T/C [32]: 65.4%
viability, T/C [33]: 73.6%
viability, T/C [34]: 57.8%
viability, T/C [35]: 71.7%
viability, T/C [36]: 65.9%
